The text below walks through data of ChEMBL document CHEMBL3585313, “Fragment-Based Discovery of a Small Molecule Inhibitor of Bruton's Tyrosine Kinase” (J Med Chem, 2015).

A value given as a limit tells only on which side of the number the result lay.

A short description of series [1]: Hepatic extraction ratio in Sprague-Dawley rat at 1 mg/kg, iv. The format is ADME, organism-based. Conditions: in vivo, read-out: ERH.
The subject of another series is MDR1. Nature of the series: Apparent permeability across apical to basolateral side in pig LLC-PK1 cells expressing MDR1. Type of series: ADME, cell-based, Sus scrofa.
Series [2] in a line: Clearance in Sprague-Dawley rat at 1 mg/kg, iv. The format is ADME, organism-based. Conditions: in vivo.
The nature of series [3]: Oral bioavailability in Sprague-Dawley rat at 4 mg/kg. Conditions: in vivo. The format is ADME, organism-based.
The nature of series [4]: Hepatic extraction ratio in human liver microsomes at 1 uM up to 30 mins by LC-MS/MS analysis. Type of series: ADME. Conditions: read-out: ERH.
Series [5] deals with Tyrosine-protein kinase Lck (Homo sapiens, UniProt P06239). As to the kind of experiment: Inhibition of Lck (unknown origin).
In series [6] the target is T1, Tyrosine-protein kinase BTK (Homo sapiens, UniProt Q06187). As to the kind of experiment: Inhibition of BTK autophosphorylation in human Raji cells after 30 mins by Phos-Y223 Btk HTRF assay. The format is cell-based.
Series [7] can be described thus: Hepatic extraction ratio in rat liver microsomes at 1 uM up to 30 mins by LC-MS/MS analysis. Conditions: read-out: ERH. Type of series: ADME.
Series [8] in a line: Volume of distribution at steady state in Sprague-Dawley rat at 1 mg/kg, iv and 4 mg/kg, po. Conditions: in vivo, read-out: Vdss. Type of series: ADME, organism-based.
The subject of a further series is LLC-PK1. As to the kind of experiment: Efflux ratio of apparent permeability across apical to basolateral side over basolateral to apical side in pig LLC-PK1 cells expressing MDR1. Type of series: ADME, cell-based, Sus scrofa.
Series [9] is described as follows: Half life in Sprague-Dawley rat at 1 mg/kg, iv and 4 mg/kg, po. Type of series: ADME, organism-based. Conditions: in vivo.
In series [10] the target is T1, Tyrosine-protein kinase BTK.
Description: Inhibition of BTK in human Raji cells after 30 mins by HTRF assay
For series [11], the target named is Tyrosine-protein kinase Tec (Homo sapiens) (UniProt P42680). Nature of the series: Inhibition of human recombinant Tec at 1 uM.
The target in series [12] is T2, Tyrosine-protein kinase Lyn (Homo sapiens, UniProt P07948). Conditions: 1 uM.
Target sequence in this assay (P07948 2-512 limits assumed): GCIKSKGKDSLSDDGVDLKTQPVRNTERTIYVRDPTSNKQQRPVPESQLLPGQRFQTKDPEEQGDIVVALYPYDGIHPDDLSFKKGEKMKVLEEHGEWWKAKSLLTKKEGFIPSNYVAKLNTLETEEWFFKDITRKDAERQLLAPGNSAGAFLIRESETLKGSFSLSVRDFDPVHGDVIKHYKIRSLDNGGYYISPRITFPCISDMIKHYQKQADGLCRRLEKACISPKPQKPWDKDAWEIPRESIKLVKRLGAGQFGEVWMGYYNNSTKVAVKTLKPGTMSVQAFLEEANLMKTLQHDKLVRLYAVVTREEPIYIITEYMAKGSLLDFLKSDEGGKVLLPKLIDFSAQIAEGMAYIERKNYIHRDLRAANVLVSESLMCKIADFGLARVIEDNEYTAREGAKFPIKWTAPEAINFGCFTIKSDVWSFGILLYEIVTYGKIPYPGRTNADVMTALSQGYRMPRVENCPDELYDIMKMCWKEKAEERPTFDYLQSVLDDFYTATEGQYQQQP
Description: Inhibition of human recombinant LynB at 1 uM
Series [13] is described as follows: Volume of distribution at steady state in beagle dog at 1 mg/kg, iv and 10 mg/kg, po. Conditions: in vivo, read-out: Vdss. The format is ADME, organism-based, Canis lupus familiaris.
Series [14] relates to Rattus norvegicus. As to the kind of experiment: Antiarthritic activity in po dosed bovine type-2 collagen-induced po dosed female Lewis rat arthritic model assessed as inhibition of paw volume administered as qd starting on day 12 continued through day 21. The format is functional, organism-based.
The nature of series [15]: Half life in beagle dog at 1 mg/kg, iv and 10 mg/kg, po. The format is ADME, organism-based, Canis lupus familiaris. Conditions: in vivo.
Another series addresses Activin receptor type-1 (Homo sapiens, UniProt Q04771). As to the kind of experiment: Inhibition of human recombinant ALK2 by LanthaScreen Binding assay.
Series [16] concerns the target T3, Tyrosine-protein kinase Blk (Homo sapiens, UniProt P51451). Nature of the series: Inhibition of human recombinant Blk.
The nature of series [17]: Oral bioavailability in beagle dog at 10 mg/kg. Type of series: ADME, organism-based, Canis lupus familiaris. Conditions: in vivo.
Series [18] has as its target T4, Proto-oncogene tyrosine-protein kinase Src (Homo sapiens, UniProt P12931). Nature of the series: Inhibition of human recombinant Src at 1 uM.
For series [19], the target named is Cytoplasmic tyrosine-protein kinase BMX (Homo sapiens) (UniProt P51813). Nature of the series: Inhibition of human recombinant Bmx at 1 uM.
Series [20] is described as follows: Clearance in beagle dog at 1 mg/kg, iv and 10 mg/kg, po. The format is ADME, organism-based, Canis lupus familiaris. Conditions: in vivo.
For series [21], the target named is Cytoplasmic tyrosine-protein kinase BMX (Homo sapiens, UniProt P51813). As to the kind of experiment: Inhibition of human recombinant Bmx.
The target in series [22] is T5, Tyrosine-protein kinase FRK (Homo sapiens, UniProt P42685). Nature of the series: Inhibition of human recombinant Frk at 1 uM.
In series [23] the target is T6, Tyrosine-protein kinase Fgr (Homo sapiens, UniProt P09769). Nature of the series: Inhibition of human recombinant Fgr at 1 uM.
The target of series [24] is Tyrosine-protein kinase Yes (Homo sapiens) (UniProt P07947). Nature of the series: Inhibition of human recombinant Yes at 1 uM.
The nature of series [25]: Oral bioavailability in C57/bl6 mouse at 10 mg/kg. Type of series: ADME, organism-based. Conditions: in vivo.
Series [26] addresses T7, Tyrosine-protein kinase HCK (Homo sapiens, UniProt P08631). Nature of the series: Inhibition of human recombinant Hck at 1 uM.
Another series has as its target Activated CDC42 kinase 1 (Homo sapiens, UniProt Q07912). Nature of the series: Inhibition of human recombinant TNK2 by LanthaScreen Binding assay. Background: In TR-FRET formats the signal depends on donor and acceptor labels being close together.
Series [27] has as its target T2, Tyrosine-protein kinase Lyn. Nature of the series: Inhibition of human recombinant LynA.
Target sequence in this assay (P07948 whole entry): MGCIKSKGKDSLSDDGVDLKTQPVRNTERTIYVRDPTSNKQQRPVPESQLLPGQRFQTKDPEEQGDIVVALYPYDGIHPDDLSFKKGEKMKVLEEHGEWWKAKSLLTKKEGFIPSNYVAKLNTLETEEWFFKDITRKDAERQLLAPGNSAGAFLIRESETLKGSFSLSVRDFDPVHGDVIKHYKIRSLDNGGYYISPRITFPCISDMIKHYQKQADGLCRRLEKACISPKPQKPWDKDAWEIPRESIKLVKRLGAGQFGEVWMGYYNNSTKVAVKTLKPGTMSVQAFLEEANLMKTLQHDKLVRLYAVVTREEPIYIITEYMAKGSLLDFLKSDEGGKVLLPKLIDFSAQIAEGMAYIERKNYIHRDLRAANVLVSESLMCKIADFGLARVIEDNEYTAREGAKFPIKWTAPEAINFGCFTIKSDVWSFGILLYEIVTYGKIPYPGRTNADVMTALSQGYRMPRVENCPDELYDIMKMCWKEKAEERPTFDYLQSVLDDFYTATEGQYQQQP
Series [28] in a line: Clearance in C57/bl6 mouse at 1 mg/kg, iv and 10 mg/kg, po. Conditions: in vivo. Type of series: ADME, organism-based.
Series [29] has as its target T7, Tyrosine-protein kinase HCK. As to the kind of experiment: Inhibition of human recombinant Hck.
Target sequence in this assay (P08631 whole entry): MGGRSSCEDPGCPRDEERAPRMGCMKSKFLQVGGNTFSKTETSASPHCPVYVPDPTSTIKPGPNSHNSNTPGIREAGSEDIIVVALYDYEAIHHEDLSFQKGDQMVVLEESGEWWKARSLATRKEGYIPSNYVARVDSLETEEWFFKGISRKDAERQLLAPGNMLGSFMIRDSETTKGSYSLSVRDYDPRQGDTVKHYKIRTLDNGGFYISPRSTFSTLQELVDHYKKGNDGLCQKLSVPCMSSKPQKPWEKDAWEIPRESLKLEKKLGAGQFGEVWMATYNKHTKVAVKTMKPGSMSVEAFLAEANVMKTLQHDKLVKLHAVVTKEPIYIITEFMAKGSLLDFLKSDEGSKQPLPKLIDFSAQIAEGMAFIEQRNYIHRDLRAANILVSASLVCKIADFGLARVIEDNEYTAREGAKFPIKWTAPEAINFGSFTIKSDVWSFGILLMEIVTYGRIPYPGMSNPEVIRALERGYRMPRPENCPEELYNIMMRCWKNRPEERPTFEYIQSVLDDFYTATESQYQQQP
The target of series [30] is Tyrosine-protein kinase Tec (Homo sapiens, UniProt P42680). Nature of the series: Inhibition of human recombinant Tec.
For series [31], the target named is T6, Tyrosine-protein kinase Fgr. Nature of the series: Inhibition of human recombinant Fgr.
Series [32] deals with Rattus norvegicus. Nature of the series: Antiarthritic activity in po dosed bovine type-2 collagen-induced po dosed female Lewis rat arthritic model assessed as increase in paw volume AUC (0 to 24 hrs) administered as qd starting on day 12 continued through day 21. The format is functional, organism-based.
Series [33] concerns the target Tyrosine-protein kinase Fyn (Homo sapiens) (UniProt P06241). As to the kind of experiment: Inhibition of human recombinant Fyn at 1 uM.
The target of another series is LIM domain kinase 1 (Homo sapiens, UniProt P53667). As to the kind of experiment: Inhibition of human recombinant LIMK1 by LanthaScreen Binding assay.
Series [34] deals with T2, Tyrosine-protein kinase Lyn. As to the kind of experiment: Inhibition of human recombinant LynB.
Target sequence in this assay (P07948 whole entry): as the sequence (P07948 whole entry) above
The target in series [35] is T4, Proto-oncogene tyrosine-protein kinase Src. Nature of the series: Inhibition of human recombinant Src.
Series [36] in a line: Volume of distribution at steady state in C57/bl6 mouse at 1 mg/kg, iv and 10 mg/kg, po. The format is ADME, organism-based. Conditions: in vivo, read-out: Vdss.
The target in series [37] is T3, Tyrosine-protein kinase Blk. Nature of the series: Inhibition of human recombinant Blk at 1 uM.
For series [38], the target named is T5, Tyrosine-protein kinase FRK. As to the kind of experiment: Inhibition of human recombinant Frk.
Series [39] addresses T2, Tyrosine-protein kinase Lyn. Conditions: 1 uM. This is another data set of the same source.
Target sequence in this assay (P07948 2-512 limits assumed): as the sequence (P07948 2-512 limits assumed) above
Description: Inhibition of human recombinant LynA at 1 uM
The nature of series [40]: Half life in C57/bl6 mouse at 1 mg/kg, iv and 10 mg/kg, po. Conditions: in vivo. The format is ADME, organism-based.

T1 sequence (Q06187 whole entry): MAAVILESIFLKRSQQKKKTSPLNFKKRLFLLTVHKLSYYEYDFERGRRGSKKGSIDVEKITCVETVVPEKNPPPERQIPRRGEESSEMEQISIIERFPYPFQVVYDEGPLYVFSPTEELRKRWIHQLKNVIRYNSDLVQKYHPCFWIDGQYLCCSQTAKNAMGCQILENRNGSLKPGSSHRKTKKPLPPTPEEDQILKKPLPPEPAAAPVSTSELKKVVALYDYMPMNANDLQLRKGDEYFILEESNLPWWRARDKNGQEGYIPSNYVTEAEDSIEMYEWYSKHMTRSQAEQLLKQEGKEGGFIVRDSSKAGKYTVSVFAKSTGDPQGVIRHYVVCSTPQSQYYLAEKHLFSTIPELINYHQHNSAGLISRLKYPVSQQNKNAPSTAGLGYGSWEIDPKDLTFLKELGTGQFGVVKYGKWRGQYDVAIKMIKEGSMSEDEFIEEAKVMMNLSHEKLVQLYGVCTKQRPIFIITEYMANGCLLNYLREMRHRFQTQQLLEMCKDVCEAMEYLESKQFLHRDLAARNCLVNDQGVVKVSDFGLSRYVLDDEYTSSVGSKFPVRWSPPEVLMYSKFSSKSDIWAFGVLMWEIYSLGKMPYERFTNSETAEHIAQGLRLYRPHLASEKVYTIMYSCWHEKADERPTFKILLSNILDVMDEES
Tyrosine-protein kinase Lck, sequence (P06239 whole entry): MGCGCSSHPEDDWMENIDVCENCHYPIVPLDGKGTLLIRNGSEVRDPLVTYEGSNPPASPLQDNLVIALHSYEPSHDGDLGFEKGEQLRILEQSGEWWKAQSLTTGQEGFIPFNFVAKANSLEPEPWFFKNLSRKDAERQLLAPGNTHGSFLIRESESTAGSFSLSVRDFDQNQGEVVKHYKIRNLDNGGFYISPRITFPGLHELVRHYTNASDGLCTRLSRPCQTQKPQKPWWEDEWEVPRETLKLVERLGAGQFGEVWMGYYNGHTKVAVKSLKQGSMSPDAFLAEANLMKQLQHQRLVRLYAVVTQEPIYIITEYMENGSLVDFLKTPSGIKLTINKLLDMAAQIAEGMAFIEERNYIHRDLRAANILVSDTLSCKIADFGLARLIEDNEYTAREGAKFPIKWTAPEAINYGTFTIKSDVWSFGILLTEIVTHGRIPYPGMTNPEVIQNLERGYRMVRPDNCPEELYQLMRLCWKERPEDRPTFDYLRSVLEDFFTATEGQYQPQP
T5 sequence (P42685 whole entry): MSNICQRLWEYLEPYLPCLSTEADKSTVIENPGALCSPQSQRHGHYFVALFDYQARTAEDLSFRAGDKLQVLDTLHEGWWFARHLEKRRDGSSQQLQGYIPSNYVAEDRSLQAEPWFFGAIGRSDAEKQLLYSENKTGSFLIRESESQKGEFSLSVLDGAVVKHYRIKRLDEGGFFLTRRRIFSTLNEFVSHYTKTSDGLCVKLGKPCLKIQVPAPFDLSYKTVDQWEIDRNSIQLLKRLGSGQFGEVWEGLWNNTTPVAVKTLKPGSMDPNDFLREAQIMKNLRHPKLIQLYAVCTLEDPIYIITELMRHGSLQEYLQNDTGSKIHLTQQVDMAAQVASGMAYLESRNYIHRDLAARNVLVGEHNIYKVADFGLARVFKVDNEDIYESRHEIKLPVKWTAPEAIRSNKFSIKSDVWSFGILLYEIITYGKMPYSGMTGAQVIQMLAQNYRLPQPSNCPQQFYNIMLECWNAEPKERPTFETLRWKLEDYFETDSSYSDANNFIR
T4 sequence (P12931 2-536 limits assumed): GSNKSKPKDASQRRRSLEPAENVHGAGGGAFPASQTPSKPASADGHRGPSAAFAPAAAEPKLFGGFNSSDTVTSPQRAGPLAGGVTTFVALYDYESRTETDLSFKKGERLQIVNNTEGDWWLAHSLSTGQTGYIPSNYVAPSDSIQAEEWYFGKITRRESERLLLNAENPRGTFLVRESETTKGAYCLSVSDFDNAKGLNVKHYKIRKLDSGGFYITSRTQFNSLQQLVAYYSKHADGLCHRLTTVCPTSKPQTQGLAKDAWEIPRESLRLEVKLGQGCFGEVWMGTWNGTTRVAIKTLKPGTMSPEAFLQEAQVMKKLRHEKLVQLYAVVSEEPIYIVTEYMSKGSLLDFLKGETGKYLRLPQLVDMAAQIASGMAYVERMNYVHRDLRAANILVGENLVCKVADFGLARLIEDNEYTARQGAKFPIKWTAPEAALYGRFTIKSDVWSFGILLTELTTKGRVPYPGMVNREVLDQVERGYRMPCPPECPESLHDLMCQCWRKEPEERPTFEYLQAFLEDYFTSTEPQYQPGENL
Tyrosine-protein kinase Fyn (Homo sapiens), sequence (P06241 2-537 limits assumed): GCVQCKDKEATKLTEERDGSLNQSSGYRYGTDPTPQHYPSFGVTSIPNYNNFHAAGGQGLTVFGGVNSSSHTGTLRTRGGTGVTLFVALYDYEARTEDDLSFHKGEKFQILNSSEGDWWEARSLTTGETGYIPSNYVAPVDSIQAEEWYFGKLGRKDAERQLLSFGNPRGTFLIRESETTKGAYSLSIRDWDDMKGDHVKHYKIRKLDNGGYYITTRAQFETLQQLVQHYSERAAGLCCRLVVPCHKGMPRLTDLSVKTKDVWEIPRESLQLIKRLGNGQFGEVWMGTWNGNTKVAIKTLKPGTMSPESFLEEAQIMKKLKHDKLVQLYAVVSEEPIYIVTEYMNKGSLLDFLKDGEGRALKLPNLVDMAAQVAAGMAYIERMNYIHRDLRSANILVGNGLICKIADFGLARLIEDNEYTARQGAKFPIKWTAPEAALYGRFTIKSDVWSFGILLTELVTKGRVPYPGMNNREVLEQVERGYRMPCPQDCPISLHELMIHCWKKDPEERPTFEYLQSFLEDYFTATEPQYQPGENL
LIM domain kinase 1, sequence (P53667 whole entry, the tested form may be a part): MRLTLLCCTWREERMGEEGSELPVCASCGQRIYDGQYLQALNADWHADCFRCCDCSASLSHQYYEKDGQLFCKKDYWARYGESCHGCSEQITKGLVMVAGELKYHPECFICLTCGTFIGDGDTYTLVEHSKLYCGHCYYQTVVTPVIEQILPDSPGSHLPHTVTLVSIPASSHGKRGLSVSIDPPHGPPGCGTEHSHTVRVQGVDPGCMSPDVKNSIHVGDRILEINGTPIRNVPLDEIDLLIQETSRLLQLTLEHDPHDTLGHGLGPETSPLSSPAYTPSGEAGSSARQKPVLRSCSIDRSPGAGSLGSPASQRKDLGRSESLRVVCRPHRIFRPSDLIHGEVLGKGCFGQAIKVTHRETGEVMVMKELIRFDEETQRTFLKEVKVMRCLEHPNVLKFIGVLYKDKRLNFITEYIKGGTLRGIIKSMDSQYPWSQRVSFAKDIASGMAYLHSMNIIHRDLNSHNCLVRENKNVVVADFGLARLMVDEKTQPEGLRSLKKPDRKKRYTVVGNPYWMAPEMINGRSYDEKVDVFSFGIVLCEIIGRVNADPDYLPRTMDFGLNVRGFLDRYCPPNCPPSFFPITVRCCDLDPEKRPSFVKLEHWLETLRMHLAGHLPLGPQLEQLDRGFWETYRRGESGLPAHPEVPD

For orientation: Papp A→B means the apparent permeability from the apical to the basolateral side of a cell layer. Usually bioavailability stands for dose-corrected exposure relative to a reference, in per cent. One may read the IC50 as the point on the concentration scale where inhibition reaches its midpoint. What is called EC50 is the concentration needed to bring the measured effect to its halfway point. Read a low EC50 as higher potency in that assay. Usually half-life stands for the time needed for the level to fall by half in the phase considered. For the compound `Cn1cc(-c2cccc3c(N)c(C(N)=O)nnc23)cn1`, the hepatic extraction ratio in [1] worked out at 0.3. The apparent permeability from apical to basolateral (Papp A→B) in the series on MDR1 was 28.8 ×10⁻⁶ cm/s. In series [2], this compound displayed a clearance of 22 mL/min/kg. The compound also displayed a bioavailability in series [3] of 35%. The hepatic extraction ratio at 0.5 h, 1 µM in series [4] is 0.77; in series [7], 0.5. For the same compound, the IC50 was found to be 13000 nM in series [5] and 240000 nM in [10]. In series [6], the EC50 is > 50000 nM. The Vd in series [8] is 0.7 L/kg. In the series on LLC-PK1, the Ratio was determined as 0.7. Further, the half-life in series [9] is 1.3 h.
A word on the inhibition: it is the share of the control response that was lost under treatment. Turning to `Cc1cc2cn[nH]c2cc1-c1cccc2c(N)c(C(N)=O)nnc12`, the inhibition in series [11] is 92%; in [12], 85%; in series [18], 87%; in series [19], 91%; in series [22], 88%; in series [23], 94%. Moreover, the inhibition was found to be 73% in series [24]; 82% in series [26]; 53% in series [33]; 89% in series [37]; 82% in [39]. Also, the Vd worked out at 1.1 L/kg in [13], 1.5 L/kg in series [8] and 0.8 L/kg in [36]. Further, the Activity entry in the series on Rattus norvegicus [14] and in the series on Rattus norvegicus [32] was “Dose-dependent effect” throughout. Moreover, the half-life in series [15] was 4.1 h; in [9] it was 1.6 h; in series [40] it was 1.6 h. Besides, the 50% inhibitory concentration (IC50) at Activin receptor type-1 was 7 nM; in series [16], 36 nM; in series [21] it was 36 nM; at Activated CDC42 kinase 1, 11 nM; in [27] it was 82 nM; in series [29] it was 99 nM. In addition, the IC50 in series [30] was 57 nM; in [31] it was 41 nM; on LIM domain kinase 1, 12 nM; in [34] it was 54 nM; in series [35] it was 67 nM; in series [38] it was 41 nM. For the same compound, the bioavailability in [17] was determined as 89%; in series [25], 93%; in [3] it was 70%. The figures for the clearance in [20], in series [2] and in series [28] were 8.7 mL/min/kg, 12 mL/min/kg and 18 mL/min/kg, respectively.
With `NC(=O)c1nnc2ccccc2c1N`, the half-maximal inhibitory concentration (IC50) was 38000 nM in series [5] and 3500 nM in [10].
Take `NC(=O)c1nnc2c(-c3ccc4cn[nH]c4c3)cccc2c1N`: in [5], the midpoint of inhibition, the IC50, lay at 1300 nM.
On to `NC(=O)c1nnc2c(-c3ccc4cc[nH]c4c3)cccc2c1N`, for which 6400 nM corresponded to half-maximal inhibition in series [5] (IC50).
